The source of these data is patent US20200268707A1, “METHODS OF MODULATING PROTEIN EXOCYTOSIS AND USES OF SAME IN THERAPY” (Yeda Research and Development Co. Ltd., priority 2016, published 2020).

The test system of one experiment is HeLa cells. The experiment is described as follows: Live/dead ratio, trypan blue and automated cell counter. Format: cell-based, human. To be noted: non-secretory, 2 μM monensin over 2 days. The protocol:
(§1) Various cell lines treated with 2 μM of monensin over 2 days show increased cell death. Cells were counted using countess 2 automated cell counter to determine live/dead ratios.
(§2) HEK 293, IMR-90 and HeLa cells were grown in DMEM supplemented with 10% fetal bovine serum, 1% Penicillin/streptomycin and L-glutamine (2 mmole/liter) (Biological industries) at 37° C. with 5% CO2. Drugs were introduced to cells for 2 hrs at varying concentrations. Tunicamycin (Sigma) was given at 5 μg/ml. Treatment with the glycosylation inhibitor tunicamycin is known to cause accumulation of unfolded glycoproteins in the ER which is followed by […] of these aberrant proteins. […] Monensin (Enco scientific services) was given at 2 mM and MG-132 (Biotest) at 40 μM. Monensin is an antibiotic, commercially known as Golgi-stop. This drug inhibits the transport of proteins between the medial and trans-Golgi stacks thus also inhibiting phosphorylation, addition of galactose to glycoproteins and sulfation that occur in the trans-Golgi (Griffiths et al., 1983; Rosa et al., 1992). Cell death assessment was done by trypan blue staining and counted with Countess IFM automated cell counter (Thermo Fisher). Proliferation of mammalian cells was measured by XTT assay.
(§3) Accumulation of proteins in cells is highly cytotoxic. This cytotoxicity is potentially higher in highly secretory cells, wherein a large mass of proteins is constantly moving through the Golgi apparatus. […] The present inventors examined the long-term effect of Golgi traffic inhibition on secretory cells. Four human cell lines were selected, two that are non-secretory (HEK293 and HeLa) and two secretory cell lines (HepG2 and RPMI 8226) and assessed their live/dead ratios over 2 days of treatment with monensin.

For a further experiment, the system named is HEK293 cells. The experiment is described as above. Format: cell-based, human. Particulars: HEK293, non-secretory; 2 μM monensin over 2 days. As for the experimental part:
as §1, §2, §3

Another experiment deals with HepG2 cells. The description is as above. Format: cell-based, human. Particulars: HepG2, secretory; 2 μM monensin over 2 days. As for the experimental part: as §1, §2, §3
Experiment [1] has as its system proteasomal degradation in Golgi fractions of HEK293 cells. The experiment is described as follows: suc-LLVY-AMC proteasome cleavage reporter assay, Golgi fractions. Format: cell-based, human. Particulars: Golgi fractions from treated vs untreated cells, 150 minutes. As for the experimental part: Proteasome cleavage reporter assay Golgi or ER fractions from drug/siRNA treated HEK293 cells were incubated with suc-LLVY-AMC (Biotest) as per protocol and fluorescence levels were measured over time using a Tecan M200 plate reader (Ex: 360 nm, Em: 460 nm).
Quality control of protein substrates requires that unfolded and misfolded proteins be identified, ubiquitylated and finally, degraded. Following the above results, showing K-48 linked polyubiquitylation occurring in the Golgi apparatus and the presence of PSMD6, the final step in quality control was examined i.e., degradation. In order to assess degradation levels in the Golgi, the suc-LLVY-AMC fluorogenic proteasomal substrate assay was utilized, wherein the proteasomal substrate was exposed to Golgi fractions from treated vs. untreated cells. Fluorescence levels were measured over time, indicating the increase in proteasomal cleavage product (FIG. 8A). […] Treatment with the proteotoxic stressors Tunicamycin and monensin caused an increase in Golgi-localized degradation (FIGS. 8B, C), which is consistent with their effect on Golgi protein polyubiquitylation (FIG. 3B). […] In order to assess the involvement of PSMD6 in Golgi associated degradation, cells were transfected with either control siRNA or siRNA targeting PSMD6. The cells were fractionated and subjected to a suc-LLVY-AMC assay for both ER and Golgi fractions from cells treated with either siRNA. […] The results of the proteasomal activity assay point to active proteasomal degradation taking place in the Golgi apparatus. Furthermore, PSMD6 is shown to be a central component of Golgi-associated degradation while also playing a role in ERAD.

The subject of another experiment is 5TGM1 MM cells. The experiment is described as follows: FACS apoptosis measurement with annexin V and 7AAD. Format: cell-based, murine. Particulars: 5TGM1 cells; 12 hours, 1 μM monensin. The protocol: FIGS. 10A-10F show apoptosis measurement by FACS analyses of murine MM 5TGM1 cells treated with monensin. […] Bortezomib is a golden standard drug for MM.
Untreated cells show an expected low level of cell death, as in controls for DMSO, in which bortezomib is diluted and ethanol, in which monensin is diluted (FIGS. 10A-C).

Experiment [2] has as its system multiple myeloma cells (5TGM1) in mice. The experiment is described as follows: In vivo multiple myeloma model, mice injected with 5TGM1 cells. Particulars: 80 μM monensin in drinking water for 5 days. As for the experimental part: 5TMM mice, a breed of C57BL/KalwRij mice that are sensitive to MM, were injected with 5TGM1 murine MM cell line and blood levels of IgG2B were measured periodically over 32 days by ELISA. Mice were split into 2 groups, the control group received 0.35% ethanol in drinking water while the test group received 80 μM monensin (initially solubilized in 70% ethanol) in drinking water. Mice were sacrificed after 5 days of treatment. Spleens and bone marrow were harvested, homogenized and analyzed by FACS.
In view of the above-results that inhibition of secretion may provide a novel therapeutic opportunity in MM, it was tested whether monensin treatment may inhibit progression of MM disease. To this end, mice were injected with 5TGM1 cells (FIG. 13F) and followed MM progression by monitoring blood levels of IgG2β by ELISA (FIG. 13G). Mice that developed MM were then administered with 80 μM monensin in the drinking water for 5 days.

Molecules are shown by their SMILES. “Also recorded” adds a separate entry of the source.

Consider `CC[C@@]1([C@@H]2O[C@@H]([C@H]3O[C@@](O)(CO)[C@H](C)C[C@@H]3C)C[C@@H]2C)CC[C@H]([C@]2(C)CC[C@]3(C[C@H](O)[C@@H](C)[C@@H]([C@@H](C)[C@@H](OC)[C@H](C)C(=O)O)O3)O2)O1` [monensin], for which the “cell death (live/dead ratio)” value is on record as “little effect; also recorded: largely insensitive” with HeLa cells, “little effect” with HEK293 cells and “more susceptible to cell death” in the experiment on HepG2 cells. Also, the “Golgi-localized proteasomal degradation (suc-LLVY-AMC cleavage)” value in experiment [1] was “increase”. Further, the apoptotic cell death entry with 5TGM1 MM cells is “comparable to that found in bortezomib treated cells”. For the same molecule, the “spleen size smaller than that of control mice” value in experiment [2] is given as approximately 30%. Also, the “CD138+, CD19− multiple myeloma cells in the spleen” value in experiment [2] (control 22%) came out at 8%. For the same molecule, in experiment [2] (control 62), the “CD138+, CD19− multiple myeloma cells in bone marrow (BM)” value is 25%. The “CD138-, CD19+ normal B-cell levels” value in experiment [2] (both spleen and BM) is recorded as “higher than in the control group”.
